Source: patent US20250098679A1, “HERBICIDAL PYRIDONE DERIVATIVES” (SYNGENTA CROP PROTECTION AG, priority 2021, published 2025)

Legend:
Format in all cases: in vivo
Details in all cases: evaluated after 13 days
[1] = tested on: Zea mays (ZEAMX); test: Pre-emergence Test, Zea mays (ZEAMX)
[2] = tested on: Ipomoea hederacea (IPOHE); test: Pre-emergence Test, Ipomoea hederacea (IPOHE)
[3] = tested on: Amaranthus palmeri (AMAPA); test: Post-emergence Test, Amaranthus palmeri (AMAPA); set-up: key: 5=81-100%, 4=61-80%, 3=41-60%, 2=21-40%, 1=0-20% damage
Procedure, shortened: (§1)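 Tested at 1000 g/ha unless otherwise stated. Plants were held at 24/16 °C day/night with a 14 h light period. Percent damage was read at 13 days and reported in five bands.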

[4] = tested on: Zea mays (ZEAMX); test: Post-emergence Test, Zea mays (ZEAMX); set-up: key to percentage damage caused to the plant, ZEAMX (five-point scale): 5=81-100%, 4=61-80%, 3=41-60%, 2=21-40%, 1=0-20% damage
Procedure, shortened: as §1

[5] = tested on: Echinochloa crus-galli (ECHCG); test: Post-emergence Test, Echinochloa crus-galli (ECHCG); set-up: key to percentage damage caused to the plant, ECHCG (five-point scale): 5=81-100%, 4=61-80%, 3=41-60%, 2=21-40%, 1=0-20% damage
Procedure, shortened: as §1

[6] = tested on: Ipomoea hederacea (IPOHE); test: Post-emergence Test, Ipomoea hederacea (IPOHE); set-up: key to percentage damage caused to the plant, IPOHE (five-point scale): 5=81-100%, 4=61-80%, 3=41-60%, 2=21-40%, 1=0-20% damage
Procedure, shortened: as §1

[7] = tested on: Setaria faberi (SETFA); test: Pre-emergence Test, Setaria faberi (SETFA)
[8] = tested on: Amaranthus palmeri (AMAPA); test: Pre-emergence Test, Amaranthus palmeri (AMAPA)
[9] = tested on: Setaria faberi (SETFA); test: Post-emergence Test, Setaria faberi (SETFA); set-up: key to percentage damage caused to the plant, SETFA (five-point scale): 5=81-100%, 4=61-80%, 3=41-60%, 2=21-40%, 1=0-20% damage
Procedure, shortened: as §1

[10] = tested on: Amaranthus retoflexus (AMARE); test: Post-emergence Test, Amaranthus retoflexus (AMARE); set-up: key to percentage damage caused to the plant, AMARE (five-point scale): 5=81-100%, 4=61-80%, 3=41-60%, 2=21-40%, 1=0-20% damage
Procedure, shortened: as §1

[11] = tested on: Amaranthus retoflexus (AMARE); test: Pre-emergence Test, Amaranthus retoflexus (AMARE)
[12] = tested on: Echinochloa crus-galli (ECHCG); test: Pre-emergence Test, Echinochloa crus-galli (ECHCG)

SMILES	Pre-emergence Test ZEAMX, percentage damage caused to the plant (five-point scale) ([1]; 250 g/Ha (*))	Pre-emergence Test ZEAMX, percentage damage caused to the plant (five-point scale) ([1]; 1000 g/ha)	Pre-emergence Test IPOHE, percentage damage caused to the plant (five-point scale) ([2]; 250 g/Ha (*))	Pre-emergence Test IPOHE, percentage damage caused to the plant (five-point scale) ([2]; 1000 g/ha)	percentage damage caused to the plant, AMAPA (five-point scale) ([3]; 250 g/Ha)	percentage damage caused to the plant, AMAPA (five-point scale) ([3]; 1000 g/ha)	percentage damage caused to the plant, ZEAMX (five-point scale) ([4]; 250 g/Ha)	percentage damage caused to the plant, ZEAMX (five-point scale) ([4]; 1000 g/ha)	percentage damage caused to the plant, ECHCG (five-point scale) ([5]; 250 g/Ha)	percentage damage caused to the plant, ECHCG (five-point scale) ([5]; 1000 g/ha)	percentage damage caused to the plant, IPOHE (five-point scale) ([6]; 250 g/Ha)	percentage damage caused to the plant, IPOHE (five-point scale) ([6]; 1000 g/ha)	Pre-emergence Test SETFA, percentage damage caused to the plant (five-point scale) ([7]; 250 g/Ha (*))	Pre-emergence Test SETFA, percentage damage caused to the plant (five-point scale) ([7]; 1000 g/ha)	Pre-emergence Test AMAPA, percentage damage caused to the plant (five-point scale) ([8]; 250 g/Ha (*))	percentage damage caused to the plant, SETFA (five-point scale) ([9]; 1000 g/ha)	percentage damage caused to the plant, AMARE (five-point scale) ([10]; 1000 g/ha)	Pre-emergence Test AMARE, percentage damage caused to the plant (five-point scale) ([11]; 1000 g/ha)	Pre-emergence Test ECHCG, percentage damage caused to the plant (five-point scale) ([12]; 1000 g/ha)	Pre-emergence Test AMAPA, percentage damage caused to the plant (five-point scale) ([8]; 1000 g/ha)	also measured
CCn1c(Cn2cc(C(F)(F)F)cn2)cc(=O)c(C(=O)O)c1-c1ccc(Cl)c(Cl)c1 [Compound 6, 2-(3,4-dichlorophenyl)-1-ethyl-4-oxo-6-[[4-(trifluoromethyl)pyrazol-1-yl]methyl]pyridine-3-carboxylic acid]	0	0	1 (1=0-20%)	2 (2=21-40%)	0	2 (2=21-40%)	0	4 (4=61-80%)	3 (3=41-60%)	4 (4=61-80%)	1 (1=0-20%)	1 (1=0-20%)	2 (2=21-40%)	4 (4=61-80%)	1 (1=0-20%)	4 (4=61-80%)	0	0	3 (3=41-60%)	–	percentage damage caused to the plant, SETFA (five-point scale) ([9]; 250 g/Ha): 0; percentage damage caused to the plant, AMARE (five-point scale) ([10]; 250 g/Ha): 1 (1=0-20%); Pre-emergence Test AMARE, percentage damage caused to the plant (five-point scale) ([11]; 250 g/Ha (*)): 0; Pre-emergence Test ECHCG, percentage damage caused to the plant (five-point scale) ([12]; 250 g/Ha (*)): 3 (3=41-60%)
CCn1c(Cn2cnc(C(F)(F)F)n2)cc(=O)c(C(=O)O)c1-c1ccc(Cl)c(Cl)c1 [Compound 7, 2-(3,4-dichlorophenyl)-1-ethyl-4-oxo-6-[[3-(trifluoromethyl)-1,2,4-triazol-1-yl]methyl]pyridine-3-carboxylic acid]	–	1 (1=0-20%)	–	0	–	1 (1=0-20%)	–	1 (1=0-20%)	–	2 (2=21-40%)	–	1 (1=0-20%)	–	3 (3=41-60%)	–	4 (4=61-80%)	1 (1=0-20%)	0	3 (3=41-60%)	0	–
CCOC(=O)c1c(-c2ccc(Cl)c(Cl)c2)n(CC)c(Cn2cc(F)cn2)cc1=O [Compound 8, ethyl 2-(3,4-dichlorophenyl)-1-ethyl-6-[(4-fluoropyrazol-1-yl)methyl]-4-oxo-pyridine-3-carboxylate]	–	0	–	1 (1=0-20%)	–	1 (1=0-20%)	–	1 (1=0-20%)	–	1 (1=0-20%)	–	1 (1=0-20%)	–	1 (1=0-20%)	–	4 (4=61-80%)	1 (1=0-20%)	0	3 (3=41-60%)	0	–
CCn1c(Cn2cc(F)cn2)cc(=O)c(C(=O)O)c1-c1ccc(Cl)c(Cl)c1 [Compound 9, 2-(3,4-dichlorophenyl)-1-ethyl-6-[(4-fluoropyrazol-1-yl)methyl]-4-oxo-pyridine-3-carboxylic acid]	0	0	1 (1=0-20%)	0	0	1 (1=0-20%)	0	2 (2=21-40%)	3 (3=41-60%)	4 (4=61-80%)	3 (3=41-60%)	1 (1=0-20%)	5 (5=81-100%)	5 (5=81-100%)	1 (1=0-20%)	3 (3=41-60%)	0	1 (1=0-20%)	5 (5=81-100%)	2 (2=21-40%)	percentage damage caused to the plant, SETFA (five-point scale) ([9]; 250 g/Ha): 4 (4=61-80%); percentage damage caused to the plant, AMARE (five-point scale) ([10]; 250 g/Ha): 0; Pre-emergence Test AMARE, percentage damage caused to the plant (five-point scale) ([11]; 250 g/Ha (*)): 0; Pre-emergence Test ECHCG, percentage damage caused to the plant (five-point scale) ([12]; 250 g/Ha (*)): 5 (5=81-100%)
CCOC(=O)c1c(-c2ccc(Cl)c(Cl)c2)n(CC)c(Cn2cnc(C(F)(F)F)n2)cc1=O [Compound 12, ethyl 2-(3,4-dichlorophenyl)-1-ethyl-4-oxo-6-[[3-(trifluoromethyl)-1,2,4-triazol-1-yl]methane]pyridine-3-carboxylate]	–	0	–	0	–	2 (2=21-40%)	–	1 (1=0-20%)	–	1 (1=0-20%)	–	2 (2=21-40%)	–	0	–	1 (1=0-20%)	1 (1=0-20%)	0	0	0	–
CCn1c(Cn2nc(C(F)(F)F)cc2C)cc(=O)c(C(=O)O)c1-c1ccc(Cl)c(Cl)c1 [Compound 13a, 2-(3,4-dichlorophenyl)-1-ethyl-6-[[5-methyl-3-(trifluoromethyl)pyrazol-1-yl]methyl]-4-oxo-pyridine-3-carboxylic acid]	0	0	0	0	0	2 (2=21-40%)	0	3 (3=41-60%)	2 (2=21-40%)	4 (4=61-80%)	3 (3=41-60%)	2 (2=21-40%)	2 (2=21-40%)	4 (4=61-80%)	1 (1=0-20%)	4 (4=61-80%)	0	0	3 (3=41-60%)	0	percentage damage caused to the plant, SETFA (five-point scale) ([9]; 250 g/Ha): 3 (3=41-60%); percentage damage caused to the plant, AMARE (five-point scale) ([10]; 250 g/Ha): 1 (1=0-20%); Pre-emergence Test AMARE, percentage damage caused to the plant (five-point scale) ([11]; 250 g/Ha (*)): 0; Pre-emergence Test ECHCG, percentage damage caused to the plant (five-point scale) ([12]; 250 g/Ha (*)): 2 (2=21-40%)
